Assay results taken from patent US9624229B2, “Pyrimidine-2-amine compounds and their use as inhibitors of JAK kinases” (Rigel Pharmaceuticals, Inc., priority 2008, dated 2017).

target: Ba/F3 V617F cells (Homo sapiens, UniProt O60674, V617F, cells depend on it); assay: Proliferation assay (Cell Titer-Glo, 72 h) utilizing Ba/F3 V617F cells; assay type: cell-based, mouse; conditions: Ba/F3 V617F cells, proliferation, level of activity given as class symbol, read-out: IC50 (the source's name)
Procedure, shortened: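 Ba/F3 V617F cells in RPMI/10% FBS, 1×10^5 cells/mL, exposed in duplicate to 3-fold serial compound dilutions (top 5 mM DMSO stock, diluted 1:250, added as 2× solution in 5% FBS medium) for 72 h at 37 °C. Viability by Cell Titer-Glo luminescence; IC50 reported.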

Chain of Ba/F3 V617F cells (O60674 whole entry V617F): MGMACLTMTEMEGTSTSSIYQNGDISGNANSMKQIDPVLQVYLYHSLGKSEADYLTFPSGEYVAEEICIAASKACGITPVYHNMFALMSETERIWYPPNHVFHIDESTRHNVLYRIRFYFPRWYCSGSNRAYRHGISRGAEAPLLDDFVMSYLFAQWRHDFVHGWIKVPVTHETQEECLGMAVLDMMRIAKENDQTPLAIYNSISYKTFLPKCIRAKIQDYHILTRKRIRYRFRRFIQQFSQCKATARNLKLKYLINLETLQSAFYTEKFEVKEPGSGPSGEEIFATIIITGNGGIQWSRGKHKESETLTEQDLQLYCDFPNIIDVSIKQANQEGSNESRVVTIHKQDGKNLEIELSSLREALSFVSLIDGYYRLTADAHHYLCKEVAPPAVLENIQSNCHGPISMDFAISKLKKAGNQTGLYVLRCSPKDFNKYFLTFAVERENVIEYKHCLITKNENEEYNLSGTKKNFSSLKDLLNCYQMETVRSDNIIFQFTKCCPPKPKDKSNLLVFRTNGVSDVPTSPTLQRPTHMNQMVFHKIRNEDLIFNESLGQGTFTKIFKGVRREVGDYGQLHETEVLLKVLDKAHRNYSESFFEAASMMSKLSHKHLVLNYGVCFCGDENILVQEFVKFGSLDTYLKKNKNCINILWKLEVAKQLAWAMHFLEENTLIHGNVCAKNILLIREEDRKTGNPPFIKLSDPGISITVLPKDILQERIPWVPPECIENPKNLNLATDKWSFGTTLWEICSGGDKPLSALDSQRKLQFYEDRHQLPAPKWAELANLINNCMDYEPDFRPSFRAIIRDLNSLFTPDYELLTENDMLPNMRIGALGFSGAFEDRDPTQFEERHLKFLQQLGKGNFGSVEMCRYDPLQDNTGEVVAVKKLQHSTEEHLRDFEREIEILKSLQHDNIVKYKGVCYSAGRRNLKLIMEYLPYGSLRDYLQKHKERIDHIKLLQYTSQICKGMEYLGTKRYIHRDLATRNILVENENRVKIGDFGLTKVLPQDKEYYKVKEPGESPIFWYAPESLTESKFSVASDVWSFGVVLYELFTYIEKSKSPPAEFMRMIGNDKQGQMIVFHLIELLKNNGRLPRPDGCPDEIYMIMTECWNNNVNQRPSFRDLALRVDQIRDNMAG

`Cc1cc(Nc2nccc(-c3ccc(NCCC(C)(C)C)nc3)n2)ccc1N1C[C@@H]2C[C@H]1CN2C` [compound 218, 4-(6-(3,3-dimethylbutyl)aminopyridin-3-yl)-N-(3-methyl-4-((1S,4S)-5-methyl-2,5-diazabicyclo[2.2.1]heptan-2-yl)phenyl)pyrimidin-2-amine] and `Cc1cc(Nc2nccc(-c3ccc(N4C[C@H]5C[C@@H]4CO5)nc3)n2)ccc1N1C[C@@H]2C[C@H]1CN2C` [compound 265, 4-(6-((1R,4R)-2-oxa-5-azabicyclo[2.2.1]heptan-5-yl)pyridin-3-yl)-N-(3-methyl-4-((1S,4S)-5-methyl-2,5-diazabicyclo[2.2.1]heptan-2-yl)phenyl)pyrimidin-2-amine] cannot be ordered by GI50: under 1 µM for the first, under 1 µM for the second.

`Cc1cc(Nc2nccc(-c3ccc(N4CCOCC4)nc3)n2)ccc1N1C[C@@H]2C[C@H]1CN2S(C)(=O)=O` [compound 192, 4-(6-(morpholin-4-yl)pyridin-3-yl)-N-(3-methyl-4-((1S,4S)-5-methylsulfonyl-2,5-diazabicyclo[2.2.1]heptan-2-yl)phenyl)pyrimidin-2-amine] and `Cc1cc(Nc2nccc(-c3ccc(OC4CCOCC4)nc3)n2)ccc1N1C[C@@H]2C[C@H]1CN2C1CCCC1` [compound 262, 4-(6-(tetrahydropyran-4-yloxy)pyridin-3-yl)-N-(3-methyl-4-((1S,4S)-5-cyclopentyl-2,5-diazabicyclo[2.2.1]heptan-2-yl)phenyl)pyrimidin-2-amine] cannot be ordered by GI50: under 1 µM for the first, under 1 µM for the second.

`CN1C[C@@H]2C[C@H]1CN2c1ccc(Nc2nccc(-c3ccc4c(c3)SCC(=O)N4)n2)cc1C#N` [compound 273, 4-(3-oxo-3,4-dihydro-2H-benzo[b][1,4]thiazin-7-yl)-N-(3-cyano-4-((1S,4S)-5-methyl-2,5-diazabicyclo[2.2.1]heptan-2-yl)phenyl)pyrimidin-2-amine] and `Cc1cc(Nc2nccc(-c3ccc4c(ccn4-c4ccncc4)c3)n2)ccc1N1C[C@@H]2C[C@H]1CN2C` [compound 232, 4-(1-(pyridin-4-yl)-1H-indol-5-yl)-N-(3-methyl-4-((1S,4S)-5-methyl-2,5-diazabicyclo[2.2.1]heptan-2-yl)phenyl)pyrimidin-2-amine] cannot be ordered by GI50: under 1 µM for the first, under 1 µM for the second.

Work on `Cc1cc(Nc2nccc(-c3ccc(N4C[C@@H](C)O[C@@H](C)C4)nc3)n2)ccc1N1CC2(C)CN(C)CC(C)(C1)C2` [compound 212, 4-(6-((2S,6R)-2,6-dimethylmorpholin-4-yl)pyridin-3-yl)-N-(3-methyl-4-(1,5,7-trimethyl-3,7-diazabicyclo[3.3.1]nonan-3-yl)phenyl)pyrimidin-2-amine] yielded a GI50 of under 1 µM.

same assay, conditions: Ba/F3 V617F cells, proliferation, level of activity to inhibit JAK2, read-out: IC50 (the source's name)

`N#Cc1cc(Nc2nccc(-c3ccc(N4CCOCC4)nc3)n2)ccc1N1C[C@@H]2C[C@H]1CN2C1CCCC1` [compound 119, 4-(6-(morpholin-4-yl)pyridin-3-yl)-N-(3-cyano-4-((1S,4S)-5-cyclopentyl-2,5-diazabicyclo[2.2.1]heptan-2-yl)phenyl)pyrimidin-2-amine] and `Cc1cc(Nc2nccc(-c3ccc(N4CCOCC4)nc3)n2)ccc1N1C[C@H]2C[C@@H]1CN2C` [compound 72, 4-(6-(morpholin-4-yl)pyridin-3-yl)-N-(3-methyl-4-((1R,4R)-5-methyl-2,5-diazabicyclo[2.2.1]heptan-2-yl)phenyl)pyrimidin-2-amine] cannot be ordered by GI50: under 1 µM for the first, under 1 µM for the second.

`CN1CC2(C)CN(c3ccc(Nc4nccc(-c5ccc(Cc6ccccc6)nc5)n4)cc3F)CC(C)(C1)C2` [compound 91, 4-(6-(benzyl)pyridin-3-yl)-N-(3-fluoro-4-(1,5,7-trimethyl-3,7-diazabicyclo[3.3.1]nonan-3-yl)phenyl)pyrimidin-2-amine] and `Cc1cc(Nc2nccc(-c3ccc(N4C[C@@H]5C[C@H]4CN5c4ccc(F)cc4)nc3)n2)ccc1N1CCN(C)CC1` [compound 13, 4-(6-((1S,4S)-5-(4-fluorophenyl)-2,5-diazabicyclo-[2.2.1]-heptan-2-yl)pyridin-3-yl)-N-(3-methyl-4-(4-methyl-piperazin-1-yl)phenyl)-pyrimidin-2-amine] cannot be ordered by GI50: under 1 µM for the first, under 1 µM for the second.

Compared with `CN1C[C@@H]2C[C@H]1CN2c1ccc(Nc2nccc(-c3ccnc(N4CCOCC4)c3F)n2)cc1F` [compound 39, 4-(3-fluoro-2-(morpholin-4-yl)pyridin-4-yl)-N-(3-fluoro-4-((1S,4S)-5-methyl-2,5-diazabicyclo[2.2.1]heptan-2-yl)phenyl)pyrimidin-2-amine], `Cc1cc(Nc2nccc(-c3cnc(N4CCOCC4)nc3)n2)ccc1N1C[C@@H]2C[C@H]1CN2C` [compound 41, 4-(2-(morpholin-4-yl)pyrimidin-5-yl)-N-(3-methyl-4-((1S,4S)-5-methyl-2,5-diazabicyclo[2.2.1]heptan-2-yl)phenyl)pyrimidin-2-amine] is lower in GI50: 1 to 10 µM for the first, under 1 µM for the second.

`Cc1cc(Nc2nccc(-c3ccc(NS(C)(=O)=O)cc3)n2)ccc1N1C[C@@H]2C[C@H]1CN2C` [compound 136, 4-(4-(methylsulfonylamino)phenyl)-N-(3-methyl-4-((1S,4S)-5-methyl-2,5-diazabicyclo[2.2.1]heptan-2-yl)phenyl)pyrimidin-2-amine] and `CN1C[C@@H]2C[C@H]1CN2c1ccc(Nc2nccc(-c3ccc(NS(C)(=O)=O)cc3)n2)cc1F` [compound 135, 4-(4-(methylsulfonylamino)phenyl)-N-(3-fluoro-4-((1S,4S)-5-methyl-2,5-diazabicyclo[2.2.1]heptan-2-yl)phenyl)pyrimidin-2-amine] cannot be ordered by GI50: under 1 µM for the first, under 1 µM for the second.

`Cc1cc(Nc2nccc(-c3csc(N(C)C)n3)n2)ccc1N1C[C@@H]2C[C@H]1CN2C` [compound 175, 4-(2-(dimethylamino)thiazol-4-yl)-N-(3-methyl-4-((1S,4S)-5-methyl-2,5-diazabicyclo[2.2.1]heptan-2-yl)phenyl)pyrimidin-2-amine] and `Cc1cc(Nc2nccc(-c3cc[nH]c3)n2)ccc1N1C[C@@H]2C[C@H]1CN2C` [compound 169, 4-(1H-pyrrol-3-yl)-N-(3-methyl-4-((1S,4S)-5-methyl-2,5-diazabicyclo[2.2.1]heptan-2-yl)phenyl)pyrimidin-2-amine] fall in the same range of GI50: 1 to 10 µM for the first, 1 to 10 µM for the second.

First: CCOC(C)c1ccc(-c2ccnc(Nc3ccc(N4C[C@@H]5C[C@H]4CN5C)c(F)c3)n2)cc1 (stereo partly drawn) [compound 182, 4-(4-(1-ethoxyethyl)phenyl)-N-(3-fluoro-4-((1S,4S)-5-methyl-2,5-diazabicyclo[2.2.1]heptan-2-yl)phenyl)pyrimidin-2-amine]
Second: Cc1cc(Nc2nccc(-c3ccc(NC(=O)C(C)(C)C)cc3)n2)ccc1N1C[C@@H]2C[C@H]1CN2C [compound 129, 4-(4-(t-butylcarbonylamino)phenyl)-N-(3-methyl-4-((1S,4S)-5-methyl-2,5-diazabicyclo[2.2.1]heptan-2-yl)phenyl)pyrimidin-2-amine]
The GI50 of the first is higher: 1 to 10 µM for the first, under 1 µM for the second.

`Cc1cc(Nc2ncc(C)c(-c3ccc(N4CCOCC4)nc3)n2)ccc1N1C[C@@H]2C[C@H]1CN2C` [compound 67, 5-methyl-4-(6-(morpholin-4-yl)pyridin-3-yl)-N-(3-methyl-4-((1S,4S)-5-methyl-2,5-diazabicyclo[2.2.1]heptan-2-yl)phenyl)pyrimidin-2-amine] and `Cc1cc(Nc2nccc(-c3cnc4c(c3)OCCN4C)n2)ccc1N1C[C@@H]2C[C@H]1CN2C` [compound 8, 4-(4-methyl-3,4-dihydro-2H-pyrido[3,2-b][1,4]oxazin-7-yl)-N-(3-methyl-4-((1S,4S)-5-methyl-2,5-diazabicyclo[2.2.1]heptan-2-yl)phenyl)pyrimidin-2-amine] cannot be ordered by GI50: under 1 µM for the first, under 1 µM for the second.

`Cc1cc(Nc2nccc(-c3cnc4[nH]ccc4c3)n2)ccc1N1C[C@@H]2C[C@H]1CN2CC1CC1` [compound 35, 4-(1H-pyrrolo[2,3-b]pyridin-5-yl)-N-(3-methyl-4-((1S,4S)-5-(cyclopropyl)methyl-2,5-diazabicyclo[2.2.1]heptan-2-yl)phenyl)pyrimidin-2-amine] and `CCN1C[C@@H]2C[C@H]1CN2c1ccc(Nc2nccc(-c3cnc4c(c3)OC(C)(C)C(=O)N4)n2)cc1C` [compound 30, 4-(2,2-dimethyl-3-oxo-3,4-dihydro-2H-pyrido[3,2-b][1,4]oxazin-7-yl)-N-(3-methyl-4-((1S,4S)-5-ethyl-2,5-diazabicyclo[2.2.1]heptan-2-yl)phenyl)pyrimidin-2-amine] cannot be ordered by GI50: under 1 µM for the first, under 1 µM for the second.

`Cc1cc(Nc2nccc(-c3ccc(NC(=O)C(C)(C)C)cc3)n2)ccc1N1CC2CCC(C1)N2C` [compound 168, 4-(4-(t-butylcarbonylamino)phenyl)-N-(3-methyl-4-(8-methyl-3,8-diazabicyclo[3.2.1]octan-3-yl)phenyl)pyrimidin-2-amine] gave a GI50 of under 1 µM.

same assay, conditions: inhibition of JAK2 activity, proliferation of Ba/F3 V617F cells, read-out: IC50 (the source's name)

`Cc1cc(-c2ccnc(Nc3ccc(N4C[C@@H]5C[C@H]4CN5C)nc3)n2)cnc1N1CCOCC1` [compound 58, 4-(5-methyl-6-(morpholin-4-yl)pyridin-3-yl)-N-(6-((1S,4S)-5-methyl-2,5-diazabicyclo[2.2.1]heptan-2-yl)pyridin-3-yl)pyrimidin-2-amine] and `Cc1cc(Nc2nccc(-c3ccc(NC(=O)CN4CCOCC4)nc3)n2)cnc1N1C[C@@H]2C[C@H]1CN2C` [compound 144, 4-(6-(2-(morpholin-4-yl)acetamido)pyridin-3-yl)-N-(5-methyl-6-((1S,4S)-5-methyl-2,5-diazabicyclo[2.2.1]heptan-2-yl)pyridin-3-yl)pyrimidin-2-amine] fall in the same range of GI50: 1 to 10 µM for the first, 1 to 10 µM for the second.

First: Cc1cc(Nc2nccc(-c3ccc4c(ccn4-c4ccncc4)c3)n2)cnc1N1C[C@@H]2C[C@H]1CN2C [compound 236, 4-(1-(pyridin-4-yl)-1H-indol-5-yl)-N-(5-methyl-6-((1S,4S)-5-methyl-2,5-diazabicyclo[2.2.1]heptan-2-yl)pyridin-3-yl)pyrimidin-2-amine]
Second: CN(C)c1ccc(-c2ccnc(Nc3ccc(N4C[C@@H]5C[C@H]4CN5C)nc3)n2)cn1 [compound 54, 4-(6-(dimethylamino)pyridin-3-yl)-N-(6-((1S,4S)-5-methyl-2,5-diazabicyclo[2.2.1]heptan-2-yl)pyridin-3-yl)pyrimidin-2-amine]
The GI50 of the first is lower: under 1 µM for the first, 1 to 10 µM for the second.
